Assay results taken from PMC10178932, “The Antiangiogenic Effect and Ocular Pharmacology of Novel Modified Nonsteroidal Anti-Inflammatory Drugs in the Treatment of Oxygen-Induced Retinopathy” (Journal of Ocular Pharmacology and Therapeutics, 2023).
Entries after “also recorded” stand apart in the source; their conditions may differ.

Key:
[1] = Uptake and biodistribution of CL-717 in explanted human eyes; assay type: in vitro ADME; settings: explanted human eye, tissues at 1 h, 35.5°C
Procedure: Human eyes were obtained through the Lions Eye Bank for Long Island, Valley Stream, NY. […] The donor's identity was protected by de-identifying each sample. Following harvesting, they were transported on ice and delivered to the laboratory for study within 2 h after enucleation.
The anterior surface of explanted human eyes was immersed in CL-717 10% solution for 1 or 10 min, followed by washing with ddH2O. The eyes were placed in a Petri dish with their anterior part facing up, and the dish was covered and incubated for 1 h at 35.5°C, the normal in vivo eye temperature.

in vivo = settings: mouse; for Cmax: Retinal Cmax; for Cmax / concentration at 1 h: adult mice; for concentration at 1 h: 1 h after OXT-328 3.5% eye drops (3 drops per eye)
Procedure: (§3) In these studies, we used adult mice, giving us more ocular tissue to work with, even though differences may exist between adult and neonatal tissues. […] The pupils were dilated with topical 1% tropicamide. At different time points after the last eye drop, the mice were euthanized and their corneas and retinas were collected quickly, immediately frozen in liquid nitrogen, and stored at −80°C until analyzed.
(§4) Briefly, each tissue sample was weighed and 100–300 μL ddH2O was added, depending on tissue weight, and homogenized.

[2] = system: chicken chorioallantoic membrane (CAM); test: Ex ovo chicken chorioallantoic membrane (CAM) angiogenesis assay; assay type: in vivo; settings: 72 h
Procedure: Fertilized chick eggs were obtained from Charles River Labs (North Franklin, CT) and transferred to a specialized incubator with an automatic rotating device (Grumbach, Lyon Technologies, Inc., Brutgerate GmbH, Germany) for 3 days at 37°C and 70% humidity. After incubation, the eggs were cracked, and the embryo was transferred to a 100 × 25 mm sterilized Petri dish in a laminar flow hood. The eggs were incubated for 7 days and the sterilized filter paper disc containing water, 50 μM of OXT-328, or 50 μM of Q-922, or 100 μM of CL-717 was plated on the yolk sac membrane. The filter papers were treated with each reagent twice per day. Three days later, the angiogenic response was expressed as microvessel density in the CAM area determined under a microscope.[25]

[3] = system: mice with oxygen-induced retinopathy (OIR); test: Oxygen-induced retinopathy (OIR) mouse model, AVA and NVA in retinal flat mounts; assay type: in vivo, mouse (C57BL/6); settings: for Avascular area (AVA), percent of total retinal area / Neovascular area (NVA), percent of total retinal area: mean ± SEM
Procedure: C57BL/6 mice with or without pregnancy (Subline J, specific pathogen-free class) were purchased from Jackson Laboratory, Bar Harbor, ME, and housed in room air (21% oxygen) at 25°C and a 12-h light/12-h dark cycle, with free access to food and water. Animal experiments were designed to provide intralitter control and equal size groups. We used randomization and blinded analysis. After delivery, pups from 1 litter were randomized into groups, and the number of mice in each group was n ≥ 6.
Pup litters together with their mothers were exposed to 75% oxygen from postnatal day 7 (P7) to P12 and returned to room air from P12 to P17.
For retinal flat mounts,[22] on P17, the eyeballs of the mice were enucleated and fixed in 4% paraformaldehyde for 0.5 h. Once the eyeball was fixed, its posterior segment was excised and fixed further in the same solution for 1 h, after which the retina was dissected and fixed again in 4% paraformaldehyde overnight at 4°C. Following this, the retina was washed sequentially as follows: thrice in phosphate-buffered saline (PBS) with 0.1% Tween-20 for 10 min each; in 50% methanol for 10 min; in 100% methanol for 10 min; and thrice in PBS with 0.1% Tween-20 for 10 min each. The retina was then blocked with 1% bovine serum albumin in 0.5% Triton X-100 in PBS for 30 min; incubated with Alexa Fluor 488 conjugated isolectin-B4 overnight at 4°C; washed 4 times in 0.1% Tween-20 in PBS; mounted on a glass slide; and covered with PermaFluorTM aqueous mounting medium.
Retinal flat mounts were imaged with an optical microscope at 10 × magnification, and the avascular area (AVA) and neovascular area (NVA) were delineated with ImageJ, a public domain Java image processing and analysis program. The software provides the user with the ability to determine total image surface area, AVA and NVA. Noncontinguous regions of interest such as AVA and NVA could be outlined and the areas could be summed. Results are expressed as a percent of the total surface area in dimensionless units. The person measuring the AVA and NVA was blinded as to the treatment received by that animal.
Table 1 summarizes the routes of administration of each study drug (OXT-328, Q-922, CL-717). From previous studies, we knew that our lead compound OXT-328 was subject to rapid hydrolysis by carboxylesterases.
(§1) We used a 10% solution of the water-soluble CL-717 in ddH2O with its pH adjusted to 5.0 ± 0.2 with NaOH, and its osmolality to 300 ± 20 mOsm/kg H2O with 18% NaCl. To formulate a 7.15% solution of Q-922 for topical delivery, 71.5 mg of Q-922 was dissolved in 800 μL of a 5% Tween 80/95% normal saline solution, pH 7.0. Additions of 150 μL of 15% solution of polyethylene glycol and 50 μL of 5% solution of Kolliphor EL were made to the Q-922 solution.
(§2) The pH was adjusted to 6.8 and the final volume was 1 mL. Q-922 similar to CL-717 was applied to the ocular surface as 5 μL eye drops when P12 mice were returned to room air. To prepare OXT-328 eye drops, vitamin E TPGS (D-α-tocopheryl polyethylene glycol 1000 succinate) and polyquaternium-1 were dissolved in purified water. OXT-328 (3.5%) was added to this solution, and stirred at 70°C for 30 min. This solution was then centrifuged at 13,200 rpm for 10 min and the supernatant was collected. Mannitol and boric acid were added to the harvested supernatant. After pH adjustment to 6.7 ± 0.2 using NaOH, purified water was added to the final volume. The resulting solution was sterilized by filtration through a 0.22 μm filter.
For intravitreal injections, Q-922 and OXT-328 were formulated as follows: vitamin E TPGS and polyquaternium-1 were dissolved in ddH2O and the respective drug was added, and the solution was stirred at 70°C for 30 min. This solution was then centrifuged at 13,200 rpm for 10 min and the supernatant was collected. Mannitol and boric acid were added to the supernatant to final concentrations of 3.18% (w/v) and 1.2% (w/v), respectively. […]

[4] = Ocular pharmacokinetics and biodistribution in adult mice (HPLC tissue levels); settings: for concentration at 1 h: cornea, topical
Procedure: as §3, §4

[5] = design: method as in PMID 21955327; settings: systemically administered, rapidly hydrolyzed; cited from earlier work
[6] = Safety: side effects during administration in mice; assay type: in vivo, mouse
Procedure: as §1, §2

[7] = 10% eye drops, 5 μL 5x/day, P12-P17
[8] = 10% eye drops, 5 μL 5x/day, P12-P17, P17
[9] = adult mice, single 1 μL intravitreal injection of OXT-328 1%
[10] = read-out: Retinal Cmax, adult mice, single 1 μL intravitreal injection of OXT-328 1%, mean ± SEM
[11] = 50 μM on filter disc twice per day
[12] = single 1 μL intravitreal injection of 1% on P12, retinas on P17
[13] = intraperitoneal 100 mg/kg once daily P7-P17
[14] = intraperitoneal 150 mg/kg once daily P7-P17
[15] = intraperitoneal 150 mg/kg once daily P7-P17, P17
[16] = single 1 μL intravitreal injection of 1% on P12, P17

In the case of `CCOP(=O)(NCCN1CCN(C(=O)CC2=C(C)/C(=C/c3ccc([S+](C)[O-])cc3)c3ccc(F)cc32)CC1)OCC` (stereo not drawn) [CL-717, (Z)-diethyl 2-(4-(2-(5-fluoro-2-methyl-1-(4-(methylsulfinyl)benzylidene)-1H-inden-3-yl)acetyl)piperazin-1-yl)ethylphosphoramidate], the “CL-717 level in retina” value ([1]; ocular surface in 10% solution for 1 min) is reported as 12.6 µM, the “CL-717 level in retina” value ([1]; ocular surface in 10% solution for 10 min) is reported as 46.6 µM and the Tmax (in vivo; topical or ocular) is reported as 0.5 h. The half-life (in vivo; topical or ocular) was 4.7 h, the Cmax (in vivo; topical or ocular, 3 eye drops of CL-717 10% on the ocular surface) was 2.5 µM and the “Reduction of average new vessel formation versus control” value ([2]; 100 μM on filter disc twice per day) was 34.2%. The “AVA reduction versus vehicle” value [3, 7] was 65%, the “NVA reduction versus vehicle” value [3, 7] was 63% and the “Avascular area (AVA), percent of total retinal area” value (shortened to “Avascular area (AVA), percent”) [3, 8] was 5.8% ± 0.8%. The “Neovascular area (NVA), percent of total retinal area” value (“Neovascular area (NVA), percent” below) [3, 8] was 8.3% ± 1.6%.
With `CCOP(=O)(OCC)OCCCCOC(=O)CC1=C(C)/C(=C/c2ccc([S+](C)[O-])cc2)c2ccc(F)cc21` (stereo not drawn) [OXT-328, phospho-sulindac] the “Retinal Tmax” value [4, 9] was 2 h, the Cmax [4, 10] was 516 ± 64.4 µM and the half-life (in vivo) was 4.8 h. The concentration at 1 h (in vivo; Level in the cornea, mean ± SEM) was 0 µM, the concentration at 1 h (in vivo; Level in the retina, mean ± SEM) was 0.4 ± 0.2 µM and the Cmax (in vivo; single 1 μL intravitreal injection of OXT-328 1%, mean ± SEM) was 516 ± 64 µM. The “Reduction of average new vessel formation versus control” value [2, 11] was 29.3%, the “Level in plasma and many tissues like the eye after systemic administration” value [5] was “essentially undetectable” and the “Effect on OIR” value ([3]; eye drops, data not shown) was “no effect”. For the same compound, the “Avascular area (AVA), percent” value [3, 12] was 6.9% ± 2.4% and the “Neovascular area (NVA), percent” value [3, 12] was 5.6% ± 1.9%.
In the case of `CCOP(=O)(NCCCCNC(=O)c1ccccc1SC/C=C(\C)CC/C=C(\C)CCC=C(C)C)OCC` [Q-922, diethyl 4-(2-((2E,6E)-3,7,11-trimethyldodeca-2,6,10-trienylthio)benzamido)butylphosphoramidate], the “Side effects on the ocular surface” value ([6]; Q-922 eye drops (7.15% formulation) applied to the ocular surface of mice) is reported as “erythema and mild edema on the ocular surface; also recorded: erythema and edema restricted to the cornea and conjunctiva”, the “Time for side effects to subside after treatment was discontinued” value ([6]; Q-922 eye drops applied to the ocular surface of mice) is reported as at most 48 h and the “Reduction of average new vessel formation versus control” value [2, 11] is reported as 41.4%. The “Effect on AVA” value [3, 13] was “no significant effect”, the “Effect on NVA” value [3, 13] was “no significant effect” and the “AVA reduction versus vehicle” value [3, 14] was 28%. The “NVA reduction versus vehicle” value [3, 14] was 61%, the “Avascular area (AVA), percent” value [3, 15] was 8.4% ± 0.5% and the “Neovascular area (NVA), percent” value [3, 15] was 9.5% ± 2.6%. For the same compound, the “AVA reduction versus vehicle” value [3, 16] was 75%, the “NVA reduction versus vehicle” value [3, 16] was 52% and the “Avascular area (AVA), percent” value [3, 12] was 3.5% ± 0.5%. The “Neovascular area (NVA), percent” value [3, 12] was 5.2% ± 1.7%.
In the case of `CSc1ccc(/C=C2/C(C)=C(CC(=O)O)c3cc(F)ccc32)cc1` [sulindac sulfide], the “Retinal Cmax” value ([4]; adult mice, single 1 μL intravitreal injection of OXT-328 1%, mean ± SEM) is reported as “undetectable” and the concentration at 1 h ([4]; mouse) is reported as 3.1 ± 0.6 µM.
For `CC1=C(CC(=O)O)c2cc(F)ccc2/C1=C\c1ccc(S(C)(=O)=O)cc1` [sulindac sulfone], the “Level in the cornea” value ([4]; adult mice, 1 h after OXT-328 3.5% eye drops (3 drops per eye), mean ± SEM) was 3.8 ± 0.7 µM, the “Retinal Cmax, fold lower than OXT-328” value [4, 9] was over 30 fold and the Cmax [4, 10] was 14.5 ± 2.4 µM.
In the case of `CC1=C(CC(=O)O)c2cc(F)ccc2/C1=C\c1ccc([S+](C)[O-])cc1` (stereo not drawn) [sulindac, reference compound], the “Retinal Cmax, fold lower than OXT-328” value [4, 9] is reported as over 30 fold, the concentration at 1 h ([4]; mouse) is reported as 48.3 ± 7.9 µM and the Cmax ([4]; mouse, retina, other: intravitreal injection) is reported as 7.1 ± 2.4 µM.
